Assay results as given in patent US11976083B2, “Inhibitors of peptidylarginine deiminases” (Gilead Sciences, Inc., priority 2020, dated 2024).

The compounds below were run against T1, human PAD4 (Homo sapiens, UniProt Q9UM07) (assay: In vitro PAD4 BAEE biochemical assay). Details: BAEE substrate 3 mM, 5 nM PAD4, 2 mM calcium chloride; geometric mean of multiple experiments.
T1 construct: human PAD4 (NM_012387), A2-P663, was PCR amplified; His-SUMO (N, cleaved yes); made in house; host or cells: E. coli BL21(DE3)
Summary of the method: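 Fluorescence read-out (ex 405/em 535 nm) of isoindole formed from ammonia, o-phthalaldehyde and DTT after EDTA stop. Reaction: 5 nM PAD4, 2 mM CaCl2, 3 mM BAEE, 2 h, 25 °C, after 30 min enzyme–compound preincubation. Normalised to BB-Cl-Amidine (50 µM) and DMSO controls.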

T1 sequence (Q9UM07 2-663): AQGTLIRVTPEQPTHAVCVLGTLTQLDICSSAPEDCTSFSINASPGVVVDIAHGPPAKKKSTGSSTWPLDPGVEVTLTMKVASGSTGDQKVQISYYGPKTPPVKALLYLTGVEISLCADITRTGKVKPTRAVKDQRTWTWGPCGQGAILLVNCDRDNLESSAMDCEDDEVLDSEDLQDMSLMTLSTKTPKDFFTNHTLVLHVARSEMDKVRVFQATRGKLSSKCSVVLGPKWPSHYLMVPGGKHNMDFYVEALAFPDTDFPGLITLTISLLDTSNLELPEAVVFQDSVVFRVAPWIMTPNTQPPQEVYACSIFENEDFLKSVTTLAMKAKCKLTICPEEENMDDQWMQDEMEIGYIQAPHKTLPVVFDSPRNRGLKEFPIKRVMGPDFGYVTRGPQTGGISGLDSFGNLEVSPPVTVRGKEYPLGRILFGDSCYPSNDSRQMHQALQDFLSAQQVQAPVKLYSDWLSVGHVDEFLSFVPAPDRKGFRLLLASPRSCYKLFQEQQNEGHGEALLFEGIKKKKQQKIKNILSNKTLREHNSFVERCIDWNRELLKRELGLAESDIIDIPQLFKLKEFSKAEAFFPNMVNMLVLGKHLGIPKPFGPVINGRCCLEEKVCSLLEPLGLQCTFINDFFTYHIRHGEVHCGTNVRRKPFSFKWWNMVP

For COc1cc(C(=O)N2C[C@H]3CC[C@@H]2[C@@H]3N)cc2nc(-c3cc4ccc5cc4n3CCCCCCC(C)(C)C(=O)N[C@@H]5C)n(C)c12 [Example 749, (11~{R})-17-[5-[(1~{R},4~ {R},7~{R})-7-amino-2-azabicyclo[2.2.1]heptane-2-carbonyl]-7-methoxy-1-methyl-benzimidazol-2-yl]-8,8,11-trimethyl-1,10-diazatricyclo[10.5.2.0^{15,18}] nonadeca-12(19), 13,15(18),16-tetraen-9-one], which IC50 is on record?
The IC50 was 17 nM.

C[C@@H]1c2ccc3cc(-c4nc5cc(C(=O)N[C@H]6CNCC[C@@H]6F)c(F)cc5n4C4CC4)n(c3n2)CCCCCc2nc(Cl)ccc2C(=O)N1C [Example 750, 2-[(2~{R})-8-chloro-2,3-dimethyl-4-oxo-3,9,16,22-tetrazatetracyclo[14.5.2.0^ {5,10}.0^{19,23}]tricosa-1(22),5(10),6,8,17,19(23),20-heptaen-17-yl]-1-cyclopropyl-6-fluoro-~{N}-[(3~{S},4~ {S})-4-fluoro-3-piperidyl] benzimidazole-5-carboxamide] was tested. Which IC50 did it give?
The IC50 was 28 nM.

Which IC50 does the source give for C[C@H]1NC(=O)c2ccc(Cl)nc2CCCCCn2c(-c3nc4cc(C(=O)N[C@H]5CNCC[C@@H]5F)c(F)cc4n3C3CC3)cc3ccc1nc32 [Example 751, 2-[(2~{R})-8-chloro-2-methyl-4-oxo-3,9,16,22-tetrazatetracyclo[14.5.2.0^ {5,10}.0^{19,23}]tricosa-1(22),5(10),6,8,17,19(23),20-heptaen-17-yl]-1-cyclopropyl-6-fluoro-~{N}-[(3~{S}, 4~{S})-4-fluoro-3-piperidyl]benzimidazole-5-carboxamide] here?
Its IC50 is 32 nM.

For COc1cc(C(=O)N2[C@@H]3CC[C@@H](N)[C@H]2CC3)cc2nc(-c3cc4ccc5nc4n3CC(F)(F)CCC[C@@H]3C[C@H]3C(=O)N[C@@H]5C)n(C)c12 [Example 752, (2~{R},5~{R},7~{R})-14-[5-[(1~{R},2~{R},5~{R})-2-amino-8-azabicyclo[3.2.1]octane-8-carbonyl]-7-methoxy-1-methyl-benzimidazol-2-yl]-11,11-difluoro-2-methyl-3,13,19-triazatetracyclo[11.5.2.0^ {5,7}.0^{16,20}]icosa-1(19),14,16(20),17-tetraen-4-one], which IC50 is on record?
Its IC50 is 30 nM.

With C[C@@H]1[C@H](N)CCCN1C(=O)c1ccc2c(nc(-c3cc4ccc5nc4n3CC/C=C/C[C@@H]3C[C@H]3C(=O)N[C@@H]5C)n2C2CC2)c1F [Example 753, (2~{R},5~{R},7~{R},9~{E})-14-[5-[(2~{R},3~{R})-3-amino-2-methyl-piperidine-1-carbonyl]-1-cyclopropyl-4-fluoro-benzimidazol-2-yl]-2-methyl-3,13,19-triazatetracyclo [11.5.2.0^{5,7}.0^{16,20}] icosa-1(19),9,14,16(20), 17-pentaen-4-one] as the compound, how does the IC50 read?
Its IC50 is 113 nM.

How did the IC50 turn out when C[C@H]1NC(=O)c2cc3ccccc3nc2CCCCCn2c(-c3nc4cc(C(=O)N5C[C@H](N)[C@@H]6CC[C@H]5C6)c(F)c(F)c4n3C3CC3)cc3ccc1nc32 [Example 754, (2~{R})-21-[5-[(1~{S},4~ {R},5~{R})-4-amino-2-azabicyclo[3.2.1]octane-2-carbonyl]-1-cyclopropyl-6,7-difluoro-benzimidazol-2-yl]-2-methyl-3,13,20,26-tetrazapentacyclo[18.5.2.0^ {5,14}.0^{7,12}.0^{23,27}] heptacosa-1(26),5(14),6,8, 10,12,21,23(27),24-nonaen-4-one] was run?
Its IC50 is 59 nM.

C[C@H]1NC(=O)[C@@H]2C[C@H]2CCCC(F)(F)Cn2c(-c3nc4cc(C(=O)N5C[C@H](N)[C@@H]6CC[C@H]5C6)cc(F)c4n3[C@H]3C[C@H]3C(F)F)cc3ccc1nc32 [Example 755, (2~{R},5~{R},7~{R})-14-[5-[(1~{S},4~{R},5~{R})-4-amino-2-azabicyclo[3.2.1]octane-2-carbonyl]-1-[(1~{S},2~{R})-2-(difluoromethyl)cyclopropyl]-7-fluoro-benzimidazol-2-yl]-11,11-difluoro-2-methyl-3,13,19-triazatetracyclo[11.5.2.0^ {5,7}.0^{16,20}]icosa-1(19),14,16(20),17-tetraen-4-one] was tested. Which IC50 did it give?
The IC50 was 29 nM.

C[C@H]1NC(=O)[C@@H]2C[C@H]2CCCC(F)(F)Cn2c(-c3nc4cc(C(=O)N5C[C@H](N)[C@@H]6CC[C@H]5C6)cc(F)c4n3[C@@H]3C[C@@H]3C(F)F)cc3ccc1nc32 [Example 756, (2~{R},5~{R},7~{R})-14-[5-[(1~{S},4~{R},5~{R})-4-amino-2-azabicyclo[3.2.1]octane-2-carbonyl]-1-[(1~{R},2~{S})-2-(difluoromethyl)cyclopropyl]-7-fluoro-benzimidazol-2-yl]-11,11-difluoro-2-methyl-3,13,19-triazatetracyclo [11.5.2.0^{5,7}.0^{16,20}] icosa-1(19),14,16(20),17-tetraen-4-one] was tested. Which IC50 did it give?
Its IC50 is 31 nM.

With COc1cc(C(=O)N2C[C@H](N)[C@@H]3CC[C@H]2C3)cc2nc(-c3cc4ccc5nc4n3CCCCC[C@H]3[C@H](C(=O)N[C@@H]5C)C3(F)F)n(C)c12 [Example 757, (2~{R},5~{R},7~{S})-14-[5-[(1~{S},4~{R},5~{R})-4-amino-2-azabicyclo[3.2.1]octane-2-carbonyl]-7-methoxy-1-methyl-benzimidazol-2-yl]-6,6-difluoro-2-methyl-3,13,19-triazatetracyclo[11.5.2.0^ {5,7}.0^{16,20}]icosa-1(19), 14,16(20),17-tetraen-4-one] as the compound, how does the IC50 read?
Its IC50 is 5 nM.

COc1cc(C(=O)N2C[C@H](N)[C@@H]3CC[C@H]2C3)cc2nc(-c3cc4ccc5nc4n3CCCCC[C@]3(F)C[C@H]3C(=O)N[C@@H]5C)c(C3CC3)n12 [Example 758, (2~{R},5~{S},7~{S})-14-[7-[(1~{S},4~{R},5~{R})-4-amino-2-azabicyclo[3.2.1]octane-2-carbonyl]-3-cyclopropyl-5-methoxy-imidazo[1,2-a]pyridin-2-yl]-7-fluoro-2-methyl-3,13,19-triazatetracyclo [11.5.2.0^{5,7}.0^{16,20}] icosa-1(19),14,16(20),17-tetraen-4-one] was tested. Which IC50 did it give?
Its IC50 is 17 nM.

C[C@H]1NC(=O)[C@@H]2C[C@H]2CCCCCn2c(-c3nc4cc(C(=O)N5C[C@H](N)[C@@H]6CC[C@H]5C6)cc(OC(F)F)c4n3C3CC3)cc3ccc1nc32 [Example 759, (2~{R},5~{R},7~{R})-14-[5-[(1~{S},4~{R},5~{R})-4-amino-2-azabicyclo[3.2.1]octane-2-carbonyl]-1-cyclopropyl-7-(difluoromethoxy)benzimidazol-2-yl]-2-methyl-3,13,19-triazatetracyclo[11.5.2.0^ {5,7}.0^{16,20}]icosa-1(19), 14,16(20),17-tetraen-4-one] was tested. Which IC50 did it give?
Its IC50 is 17 nM.

Which IC50 does the source give for C[C@H]1NC(=O)c2ccc(Cl)nc2CCCCCn2c(-c3nc4cc(C(=O)N5C[C@H](N)[C@@H]6CC[C@H]5C6)cc(OC(F)F)c4n3C3CC3)cc3ccc1nc32 [Example 760, (2~{R})-17-[5-[(1~{S},4~{R}, 5~{R})-4-amino-2-azabicyclo [3.2.1]octane-2-carbonyl]-1-cyclopropyl-7-(difluoromethoxy)benzimidazol-2-yl]-8-chloro-2-methyl-3,9,16,22-tetrazatetracyclo [14.5.2.0^{5,10}.0^{19,23}] tricosa-1(22),5(10), 6,8,17,19(23),20-heptaen-4-one] here?
Its IC50 is 70 nM.

With COc1cc(C(=O)N2C[C@H](N)[C@@H]3CC[C@H]2C3)cc2nc(-c3cc4ccc5nc4n3CC(F)(F)CCCOC3(CC3)C(=O)N[C@@H]5C)n(C)c12 [Example 761, (11~{R})-17-[5-[(1~{S},4~{R}, 5~{R})-4-amino-2-azabicyclo [3.2.1]octane-2-carbonyl]-7-methoxy-1-methyl-benzimidazol-2-yl]-3,3-difluoro-11-methyl-spiro[7-oxa-1,10,19-triazatricyclo[10.5.2.0^ {15,18}]nonadeca-12(19), 13,15(18),16-tetraene-8,1′-cyclopropane]-9-one] as the compound, how does the IC50 read?
Its IC50 is 67 nM.

How did the IC50 turn out when C[C@H]1NC(=O)[C@@H]2C[C@H]2CCCCCn2c(-c3nc4cc(C(=O)N5C[C@H](N)[C@@H]6CC[C@H]5C6)cc(OC(F)F)c4n3C)cc3ccc1nc32 [Example 763, (2~{R},5~{R},7~{R})-14-[5-[(1~{S},4~{R},5~{R})-4-amino-2-azabicyclo[3.2.1]octane-2-carbonyl]-7-(difluoromethoxy)-1-methyl-benzimidazol-2-yl]-2-methyl-3,13,19-triazatetracyclo[11.5.2.0^ {5,7}.0^{16,20}]icosa-1(19),14,16(20),17-tetraen-4-one] was run?
The IC50 was 13 nM.

For [2H]C1([2H])[C@H](N)[C@@H]2CC[C@@H](C2)N1C(=O)c1cc(F)c2c(c1)nc(-c1cc3ccc4nc3n1CCCCCc1nc(Cl)ccc1C(=O)N[C@@H]4C)n2C1CC1 [Example 764, (2~{R})-17-[5-[(1~{S},4~{R}, 5~{R})-4-amino-3,3-dideuterio-2-azabicyclo[3.2.1]octane-2-carbonyl]-1-cyclopropyl-7-fluoro-benzimidazol-2-yl]-8-chloro-2-methyl-3,9,16,22-tetrazatetracyclo[14.5.2.0^ {5,10).0^{19,23}]tricosa-1(22),5(10),6,8,17,19(23),20-heptaen-4-one], which IC50 is on record?
Its IC50 is 22 nM.

For [2H]C1([2H])[C@H](N)[C@@H]2CC[C@@H](C2)N1C(=O)c1cc(OC)c2c(c1)nc(-c1cc3ccc4nc3n1CC(F)(F)CCC[C@@H]1C[C@H]1C(=O)N[C@@H]4C)n2C [Example 765, (2~{R},5~{R},7~{R})-14-[5-[(1~{S},4~{R},5~{R})-4-amino-3,3-dideuterio-2-azabicyclo[3.2.1]octane-2-carbonyl]-7-methoxy-1-methyl-benzimidazol-2-yl]-11,11-difluoro-2-methyl-3,13,19-triazatetracyclo[11.5.2.0^ {5,7}.0^{16,20}]icosa-1(19),14,16(20),17-tetraen-4-one], which IC50 is on record?
Its IC50 is 16 nM.
